Source: patent US5763430A, “Method of treating a viral infection by administering a steroid compound” (priority 1995, dated 1998)
Values after ≈ are worked out from the molar mass of the structure shown. “Also recorded” adds a separate entry of the source.

What was measured:
human NHE1 = assay: internal pH changes in PS120 fibroblasts transfected with human NHE1; format: cell-based; details: 5 μg/ml, FIG. 2B
Method: PS120 fibroblasts transfected with rabbit: or human NHE1 were grown as described above.

[1] = system: bovine pulmonary endothelial cells; assay: growth inhibition of endothelial cells in vitro (absorbance at 600 nm); format: cell-based; details: 1 μg/ml, FIG. 3A
[2] = system: human foreskin fibroblasts; assay: growth inhibition of fibroblasts in vitro (absorbance at 600 nm); format: cell-based; details: 10 μg/ml, FIG. 3C
[3] = system: human microvascular cells; assay: inhibition of endothelial cell cord formation in vitro; format: cell-based
In short: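 Human microvascular endothelial cells plated on collagen matrix with VEGF and basic FGF; compound effect on cord-like structure formation scored in a standard cord formation assay.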

[4] = system: chick chorioallantoic membrane; assay: chorioallantoic membrane (CAM) model, inhibition of capillary growth; format: in vivo; details: 3-Day embryo
Description: The growing capillaries within the chorioallantoic membrane model (CAM model) have been used as a system in which to evaluate the effect of agents on their potential to inhibit new vessel growth. Neovascularization occurs most aggressively over the first week of embryonic development. Thereafter capillary growth is characterized by principally "elongation" rather than "de novo" formation.
In the standard assay, agents are applied locally to a region of the embryo over which neovascularization will occur. Agents are assessed by their ability to inhibit this process, as evaluated by visual examination about 7 days after application. […] The assay utilized is described in detail in Auerbach et al., Pharm. Ther. 51, 1991, 1-11.

[5] = system: chick embryo vitelline capillaries; assay: chick embryo vitelline capillary regression assay; format: in vivo
Method: Using the chick embryo vitelline capillaries assay, compounds were tested for their ability to induce capillary regression. Each compound was applied in 0.1 ml of 15% Ficol 400 and PBS onto the embryo, and vascular regression was assessed after 60 minutes.
The 3-day chick embryo consists of an embryonic disc from which numerous vessels emerge and return, forming a "FIG. 8"-shaped structure--the embryo in the center with vascular loops extending outward over both poles. […] Following a lag period of around 15 minutes, the constriction of continuity between capillary and secondary vessels, generally on the "venous" side, was observed. Continued pulsatile blood flow progressed, resulting in a "swelling" of the blind tube, followed by a pinching off of the remaining connection and formation of an enclosed vascular sac resembling a "blood island." This process progressed until only the largest vessels remained intact.

B16 melanoma = assay: suppression of growth of B16 melanoma in C57B mice; format: in vivo, mouse
Method: The growth of B16 melanoma in C57B mice is dependent upon neovascularization.
Using the growth of B16 melanoma cells in C57B mice, a recognized model for the evaluation of inhibitors of angiogenesis on the growth of cancers, the effects of subcutaneous, intraperitoneal and oral administration of squalamine were evaluated.
Based on the idea that tumor growth involves both the clonal expansion of a malignant cell along with the development of a supporting vascular supply, a combination of compound 1436 with squalamine was tested to determine whether it would achieve a synergistic effect on solid tumor growth. This concept was evaluated in the B16 melanoma model.
Animals were implanted with B16 melanoma followed by treatment with compound 1436 or 1256 administered in a combined schedule or separately. […] Thus, a combination of these two compounds achieves a therapeutic benefit in tumors dependent on neovascularization that may prevent metastatic spread.

melanoma 1205Lu = assay: suppression of growth of human melanoma in immunocompromised (RAG-1) mice; format: in vivo, human melanoma in mouse; details: FIG. 5, listed as Squalamine
Description: As apparent from FIG. 5, melanoma 1205Lu develops aggressively in RAG-1 mice after implantation.

mouse IV PK study = format: in vivo; details: i.v., mouse blood stream, HPLC
Method: To assess clearance, a mouse IV PK study was performed for compound 319 and squalamine. The compound was administered i.v. and blood samples were taken every 10 minutes. The concentration of the administered steroid was determined by HPLC analysis.

Murine B16 melanoma = assay: growth inhibition in vitro; format: cell-based; details: except at very high concentrations
Description: As set forth in Table 7 below, all malignant tumors evaluated in tissue culture, endothelial cells and vascular smooth muscle cells were sensitive to inhibition. Thus, compound 1436 has application in the control of growth factor dependent proliferation of many types of tissue.

C. albicans = assay: antibiotic activity (MIC); format: cell-based; details: Candida albicans; C. albicans; read-out: MIC
Description: (§1) Thus, it is possible to achieve an antimicrobial steroid with or without squalamine-like pharmacological activity.

E. coli = assay: antibiotic activity (MIC); format: cell-based; details: Escherichia coli; E. coli; read-out: MIC
Description: as §1

P. aerug = assay: antibiotic activity (MIC); format: cell-based; details: P. aerug; read-out: MIC
Description: as §1

S. aureus = assay: antibiotic activity (MIC); format: cell-based; details: Staphylococcus aureus; S. aureus; read-out: MIC
Description: as §1

human lymphocytes = assay: inhibition of mitogen (PHA)-stimulated growth of human T-cells; details: 10 μg/ml
Method: Specific assays were used to identify steroids with a particular biological activity, such as an assay for inhibition of mitogen-stimulated growth of human T-cells.
Human heparinized blood, freshly collected, was introduced into tissue culture flasks containing 10 μg/ml phytohaemagglutinin (PHA) in RPMI medium with 10% FCS. Various purified steroids were introduced subsequently at concentrations of 1, 5, and 10 μg/ml. Cultures were incubated for 72 hours, after which time colcemid was added to 1 μg/ml. Cultures were maintained for an additional 2 hours, and cells collected. Miotic figures were estimated using standard cytochemical techniques, following Giemsa staining.

rabbit NHE3 = rabbit NHE3 (Oryctolagus cuniculus, UniProt P26432)
rabbit NHE3, sequence (P26432 30-832): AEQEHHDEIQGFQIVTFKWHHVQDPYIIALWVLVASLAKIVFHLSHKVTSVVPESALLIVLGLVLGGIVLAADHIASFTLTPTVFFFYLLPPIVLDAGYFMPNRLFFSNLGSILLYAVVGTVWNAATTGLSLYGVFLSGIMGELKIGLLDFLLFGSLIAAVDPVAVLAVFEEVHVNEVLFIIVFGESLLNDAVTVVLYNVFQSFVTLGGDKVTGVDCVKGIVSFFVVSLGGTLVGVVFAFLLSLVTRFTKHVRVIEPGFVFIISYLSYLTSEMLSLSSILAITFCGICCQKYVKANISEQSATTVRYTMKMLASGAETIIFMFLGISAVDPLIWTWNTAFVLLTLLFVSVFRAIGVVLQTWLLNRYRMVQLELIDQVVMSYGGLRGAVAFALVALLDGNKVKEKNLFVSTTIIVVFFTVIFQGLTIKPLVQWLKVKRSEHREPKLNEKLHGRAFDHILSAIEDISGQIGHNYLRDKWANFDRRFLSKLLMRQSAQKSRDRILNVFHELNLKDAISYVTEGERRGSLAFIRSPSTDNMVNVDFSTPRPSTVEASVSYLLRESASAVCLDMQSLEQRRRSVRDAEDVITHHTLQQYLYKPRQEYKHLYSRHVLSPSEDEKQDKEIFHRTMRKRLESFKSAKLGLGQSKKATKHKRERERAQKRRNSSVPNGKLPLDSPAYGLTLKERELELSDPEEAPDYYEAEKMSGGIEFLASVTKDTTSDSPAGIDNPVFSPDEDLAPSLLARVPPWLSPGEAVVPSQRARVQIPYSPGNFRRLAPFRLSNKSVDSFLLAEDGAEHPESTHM
Method: Internal pH was measured either following acid loading or in the absence of an acid-loading challenge, with the results shown in FIGS. 1A and 1B.
Specifically, PS120 fibroblasts transfected with rabbit NHE3 were grown in supplemented Dulbecco's-modified Eagle's medium as described by Levine et al., J. Biol. Chem. 268, 1993, 25527-25535. […] For cells not acid-preloaded, the actual internal pH value was monitored as a function of time following addition of squalamine, with the results depicted in FIG. 1B.
PS120 fibroblasts transfected with rabbit NHE3 were grown and acid preloaded by exposure to 40 mM NH4 Cl as described above in conjunction with FIGS. 1A and 1B. Internal cellular pH changes expressed as the rate of pH recovery as a function of restored extracellular sodium ion concentration following exposure to 10 μg/ml of the compound were assayed with the fluorescent dye BCECF-AM as described above.

[6] = system: human umbilical venous endothelial cells; assay: LPS-induced neutrophil adherence to human umbilical venous endothelial cells; details: 10 μg, 1.0 μg, or 0.1 μg; activated human endothelial cells
Method: In these experiments, approximately 2×10^5 human umbilical venous cells (passage 2-6) were plated per well. The cells were grown in serum-free media overnight. For induction, either TNF-α (40 ng/ml) was added to endothelial cells for 6 hours prior to adding neutrophils or LPS (100 ng/ml) was added for 4-6 hours. […] After activation of the endothelial cells, approximately 50×10^6 neutrophils were added per well. The plates were gently rocked for 30 minutes at room temperature, followed by removal of the media and washing in serum-free media three times and then photographing of each well. […] A monoclonal Ab to ICAM-1 was a positive control.

CC(C)[C@@H](CC[C@@H](C)[C@H]1CC[C@H]2[C@@H]3[C@H](O)C[C@H]4C[C@@H](NCCCNCCCCN)CC[C@]4(C)[C@H]3CC[C@]12C)OS(=O)(=O)O [Compound 1256]
inhibition of human NHE1 (human NHE1): no inhibitory activity
growth of bovine pulmonary artery endothelial cells [1]: inhibited the growth
growth of fibroblasts [2]: no effect on the growth
minimal effective concentration ([3]; Homo sapiens, Endothelial cell, Table II, read-out: Minimum Effective Concentration, Cord Formation): 0.01 to 0.1 µg/mL
cell viability or proliferation ([3]; at cord-inhibiting concentrations): does not appear to profoundly affect cell viability or proliferation
Percentage positive ([4]; 0.65 μg, Assay 1): 28 Percentage
Percentage positive ([4]; 1.25 μg, Assay 1): 18 Percentage
Percentage positive ([4]; 1.25 μg, Assay 2): 18 Percentage
Percentage positive ([4]; 1.25 μg, Mean): 18 Percentage
Percentage positive ([4]; 2.5 μg, Assay 1): 35 Percentage
Percentage positive ([4]; 2.5 μg, Assay 2): 18 Percentage
Percentage positive ([4]; 2.5 μg, Mean): 27 Percentage
Percentage positive ([4]; 5.0 μg, Assay 1): 91 Percentage
Percentage positive ([4]; 5.0 μg, Assay 2): 57 Percentage
Percentage positive ([4]; 5.0 μg, Mean): 74 Percentage
Percentage positive ([4]; 20 μg, Assay 1, some vascular irritation): 52 Percentage
Percentage positive ([4]; 20 μg, Assay 2, some vascular irritation): 58 Percentage
Percentage positive ([4]; 20 μg, Mean): 55 Percentage
Percentage positive ([4]; 40 μg, Assay 1, some vascular irritation): 50 Percentage
Percentage positive ([4]; 40 μg, Assay 2, some vascular irritation): 13 Percentage
Percentage positive ([4]; 40 μg, Mean): 32 Percentage
vascular irritation ([4]; 20 and 40 μg): Some vascular irritation noted
effect on vitelline capillaries ([5]; 3- to 5-day chick embryos): disrupt vitelline capillaries
relative activity ([5]; Table 5): especially active
lag period ([5]; constriction between capillary and secondary vessels): around 15 minutes
hemorrhage / hemolysis ([5]; in vivo, listed as Squalamine): No hemorrhage was seen; also recorded: absence of hemolysis
impact on tumor volume (B16 melanoma; 5 mg/kg/day alone, FIG. 12): no significant impact on tumor volume
body weight and hematologic parameters (B16 melanoma; mouse, in vivo): no significant depression
tumor volume (B16 melanoma; subcutaneous, intraperitoneal or oral, FIGS. 4A-4C): dose-dependent suppression of tumor volume
growth of melanoma 1205Lu (melanoma 1205Lu): suppress the growth of melanoma 1205Lu in RAG-1 mice in a dose-dependent fashion; also recorded: clear suppression of tumor growth in a dose-dependent fashion
half-life (mouse IV PK study): ~35 min
cytostatic activity against B16 in culture (Murine B16 melanoma): minimal cytostatic activity
MIC (C. albicans): 8 µg/mL (≈ 12.7 µM)
MIC (E. coli): 2 to 4 µg/mL (≈ 3.18 to 6.37 µM)
MIC (P. aerug): 16 µg/mL (≈ 25.5 µM)
MIC (S. aureus): 0.5 to 1 µg/mL (≈ 0.796 to 1.59 µM)
inhibition of blast transformation (human lymphocytes): Some effect
inhibition of NHE3 (rate of pH recovery) (rabbit NHE3; 5 μg/ml squalamine, FIGS. 1A, 1B): inhibited NHE3 with respect to proton concentration at both Km and Vmax levels
resting pH of cells (rabbit NHE3; 5 μg/ml, FIG. 1B, not acid-preloaded): the resting pH of these cells was also inhibited
inhibition of neutrophil adherence [6]: no inhibition
